Activity calls are given as the source filed them.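 The calls were made as follows: active = plate Z score at or below -3, or inhibition of at least 30% at 20 µM; inactive = the rest.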
Assay: compounds lowering EGFP fluorescence in F442A cells, dose response, counter-screen for p/CIP destabilizer project (AID 2005);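 also: cells express EGFP alone from a CMV promoter as a counter screen for p/CIP-EGFP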
Settings: F442A EGFP cells, EGFP fluorescence, 16 h, stronger effect = higher value

SMILES | inhibition (EGFP decrease, at 10 µM) [%] | inhibition (at 20 µM)
O=C(NC(=S)NCCc1ccccc1)c1ccco1 | 9.7 | -5.7% (inactive)
CCc1cccc(C)c1NC(=O)CCNC(=O)c1cccc(C)c1 | 12.2 | 12.9% (inactive)
CC(Nc1cc(N2CCN(S(=O)(=O)N(C)C)CC2)ccc1[N+](=O)[O-])c1ccccc1 (stereo not drawn) | 7.3 | 23.9% (inactive)
CCCCOc1ccc(/C(O)=C2/C(=O)C(=O)N(CCCOC)C2c2ccncc2)cc1 (stereo not drawn) | 5.3 | -10.4% (inactive)
Cc1ccsc1/C=N\NC(=O)CCc1c(C)n[nH]c1C | 4 | -13.2% (inactive)
COc1ccccc1N1CCN(CC(O)COCc2cccs2)CC1 (stereo not drawn) | 16.3 | 8% (inactive)
CC(=O)N1[C@H](Cc2ccccc2)C=C[C@]1(C)C(=O)NCc1ccccn1 | -7.6 | 8.7% (inactive)
O=C(CC12CC3CC(CC(C3)C1)C2)NCCN1CCOCC1 | 9.3 | 25.4% (inactive)
CCOc1ccc(NC(=O)/C(=C\c2ccc(OC(C)=O)c(OC)c2)NC(C)=O)cc1 | 1.3 | -16.6% (inactive)
N/C(Cc1ccc([N+](=O)[O-])cc1)=N\OC(=O)COc1ccc2ccccc2c1 | 7 | -7.4% (inactive)
C/C(=C/C=C/[C@@H](C)C(=O)O)[C@H]1CN[C@H](C(=O)O)[C@H]1CC(=O)O | -8.3 | 10.3% (inactive)
O=C(Nc1ccc(F)cc1)Nc1nnc(-c2ccco2)s1 | 12 | -2.8% (inactive)
O=C(NC(=S)NCc1ccccc1)c1ccc(Br)o1 | 23.8 | 19.8% (inactive)
C=CCc1cccc2cc(C(=O)NC)c(=O)oc12 | 12.9 | 30.8%
Cc1ccc(SCC(=O)N(C)C2CCS(=O)(=O)C2)cc1 (stereo not drawn) | 17.7 | 28.3% (inactive)
C[C@H](NC(=O)C1CCC(CNC(=O)[C@@H]2CCCN2C(=O)OC(C)(C)C)CC1)C(=O)O (stereo partly drawn) | 26.7 | 20.8% (inactive)
CC(C)(C)c1cc(Cc2ccccc2)[nH]n1 | -3.7 | 35.1%
S=C(NNC(=S)Nc1ccccc1)Nc1ccccc1 | -6.9 | 16.7% (inactive)
CC(=O)c1cccc(N2Cc3ccccc3C2=NC(=O)CCl)c1 | 13.9 | 7.4% (inactive)
O=C(Cn1c(=O)[nH]c2ccccc2c1=O)N1CCN(c2cccc(Cl)c2)CC1 | 17.8 | 20.5% (inactive)
O=C(CN1C(=O)c2ccccc2C1=O)N(CCO)Cc1ccccc1 | -7.7 | 16% (inactive)
CN(C)c1ccc(C(=O)Nc2cc(C(F)(F)F)ccc2-n2cncn2)cc1 | 5 | 10.4% (inactive)
COc1cccc(/C=N/n2c(C3CCCCC3)n[nH]c2=S)c1O | 1.4 | 27.7% (inactive)
O=C(Nc1nc(-c2ccccc2)cs1)C1CCCCN1S(=O)(=O)c1ccccc1 (stereo not drawn) | 15 | 8.6% (inactive)
Cc1c(NC(=O)C(C)OC(=O)/C=C/c2ccco2)c(=O)n(-c2ccccc2)n1C (stereo not drawn) | 10.9 | -5.3% (inactive)
O=C(CCCn1c(=O)c2cccn2c2cccnc21)NCc1cccc(Br)c1 | -13.6 | 2.1% (inactive)
CSCCC(CO)NC(=O)OCc1ccccc1 (stereo not drawn) | 10.8 | -23.3% (inactive)

SMILES | inhibition (EGFP decrease, at 10 µM) [%] | inhibition (at 20 µM)
N#CCSCC(=O)Nc1ccc(F)cc1 | 4.7 | 4% (inactive)
CCCC(=O)Nn1cnc2c(c1=O)C1(CCCCC1)Cc1ccccc1-2 | -8.7 | 4% (inactive)
CCC(Cc1ccccc1)NC(=O)Cn1cccc1C(=O)c1ccccc1 (stereo not drawn) | 9.1 | 15.9% (inactive)
CCOC(=O)CSC1=Nc2ccccc2C2=NC(CC(=O)NCc3ccc4c(c3)OCO4)C(=O)N12 (stereo not drawn) | -26.1 | 3.9% (inactive)
COc1cccc2cc(C(C)=O)c(=O)oc12 | 33.2 | 24.2% (inactive)
NC(=O)c1nsc(C(=O)N(CC(=O)NC2CCCC2)c2ccc(F)c(Cl)c2)c1N | -4.6 | 15.2% (inactive)
Cc1ccc(NC(=O)C(NS(=O)(=O)c2cccc3nsnc23)C(C)C)nc1 (stereo not drawn) | 34.6 | 21.7% (inactive)
O=C(NCC1CCCO1)C1CCCCN1S(=O)(=O)c1ccc(F)cc1 (stereo not drawn) | -13.3 | 9.4% (inactive)
CC(=O)Nc1ccc(SCC(=O)Nc2ccccc2Oc2ccccc2)cc1 | 21.8 | 14.4% (inactive)
CC(=O)CC(=O)NC(=NC1CCCCC1)Nc1nc(C)cc(C)n1 | 14.7 | 5.7% (inactive)
CCCNC(=O)Cn1c(=O)oc2ccccc21 | -20.6 | 8.8% (inactive)
O=C(NCc1ccc(Cl)cc1)c1ccc(-c2ccccc2C(F)(F)F)o1 | 16.5 | -4.8% (inactive)
CC(=O)Nc1ccc(S(=O)(=O)Nc2nccs2)cc1 | 21.2 | 15.6% (inactive)
Cc1ccc(NC(=S)NC(NC(=O)c2ccco2)C(Cl)(Cl)Cl)cc1 (stereo not drawn) | 6.3 | 31.9%
Cc1ccc(S(=O)(=O)Nc2cc(C(C)C)c(O)cc2C)cc1 | -16.2 | -4.5% (inactive)
COc1ccc(S(=O)(=O)N2c3ccccc3OCC2c2ccccc2)cc1 (stereo not drawn) | -12.8 | 1.8% (inactive)
CNc1cc(C(F)(F)F)nc(-c2ccccn2)n1 | -1.6 | 22.4% (inactive)
COc1ccc(CNC(=O)C(C)Cc2ccccc2)cc1O (stereo not drawn) | 24.1 | 14.7% (inactive)
O=C1C(=O)c2ccc(-c3ccccc3)cc2-c2ccccc21 | -14.4 | 2.4% (inactive)
CCCNC(=O)c1ccc2c(=O)c(O)c(-c3cccc(Br)c3)[nH]c2c1 | -14.1 | -14.4% (inactive)
O=C(COC(=O)COc1ccccc1)NCc1ccccc1 | 16.3 | 11.3% (inactive)
COc1cc(NC(=O)c2ccccc2[N+](=O)[O-])c(C(=O)O)cc1OC | 9.2 | -1.6% (inactive)
CS(=O)(=O)Nc1ccccc1C(=O)Nc1cc(Cl)cc(Cl)c1 | 19.6 | -18.3% (inactive)
CCCc1nc(NCC2CCCO2)c2nnn(Cc3ccccc3)c2n1 (stereo not drawn) | 39 | 12.1% (inactive)
CC1(C)OC(=O)C(=CNC(CCC(N)=O)C(=O)O)C(=O)O1 (stereo not drawn) | -1.3 | 15.1% (inactive)
C=CCC(NCc1ccco1)c1ccc(OC)cc1OC (stereo not drawn) | 22.1 | -5.4% (inactive)
C=CCN1C(=O)/C(=C2/Sc3ccccc3N2C)SC1=Nc1ccccc1C | 1.3 | 8.6% (inactive)

SMILES | inhibition (EGFP decrease, at 10 µM) [%] | inhibition (at 20 µM)
O=C(c1ccccc1F)N(Cc1cccnc1)Cc1cc2cc3c(cc2[nH]c1=O)OCCO3 | 4.2 | -4.2% (inactive)
CC(NC(=O)c1c(F)cccc1Cl)c1ccc(-n2ccnc2)cc1 (stereo not drawn) | 35.7 | 24.4% (inactive)
Cc1ccccc1Cn1c(C)nc2ccccc21 | 29.8 | 39%
Cc1noc(C)c1CSc1nnc(C)c(=O)[nH]1 | -9.8 | -3.4% (inactive)
Cc1ccc(OCC(=O)N2CCN(C(=O)c3ccco3)CC2)cc1 | 23.1 | 8.2% (inactive)
CN(C)N=C1c2cc(S(=O)(=O)N(C)C)ccc2-c2ccc(S(=O)(=O)N(C)C)cc21 | 2.3 | 6.6% (inactive)
COc1ccc(S(=O)(=O)N2CCOC2CNC(=O)C(=O)NCc2ccncc2)cc1 (stereo not drawn) | -30.4 | 8.6% (inactive)
Nc1ccc(C(=O)N2N=C(c3ccccc3)CC2(O)C(F)(F)F)cc1 (stereo not drawn) | 28.6 | 4.3% (inactive)
CCC1CCCCN1C(=O)NC(=O)c1ccccc1 (stereo not drawn) | 14.3 | 5.4% (inactive)
N#Cc1cc(F)c(N2CCNCC2)cc1Cl | 13.5 | 6.7% (inactive)
O=C(NCc1ccncc1)c1cc(C(=O)C2CCCCC2)c[nH]1 | -25 | 31.5%
CCOC(=O)N1CCC(NC(=O)C2CCCN(S(=O)(=O)c3cccc4nsnc34)C2)CC1 (stereo not drawn) | 11 | 19% (inactive)
C=CCCC(=O)N1CCCC(C(=O)c2cccc(OC)c2)C1 (stereo not drawn) | 20.8 | 2.3% (inactive)
CC(OC(=O)C1CSC2(c3ccc(F)cc3)CCC(=O)N12)C(=O)NC(N)=O (stereo not drawn) | 48.2 | -5.1% (inactive)
CC1CCC(NCc2ccco2)CC1 (stereo not drawn) | -0.9 | 18.9% (inactive)
CC1CC(C)CN(C(=O)c2ccc3c(c2NCCO)C(=O)c2ccccc2C3=O)C1 (stereo not drawn) | 12.8 | 7.9% (inactive)
COc1ccc2[nH]c(=O)c(-c3noc(-c4ccccc4)n3)cc2c1 | 22.9 | 9.8% (inactive)
COC(=O)COc1ccc(Oc2nc(SC)nc(N(C)C)n2)nn1 | 34.2 | 29.7% (inactive)
COc1ccc(CC(=O)OC(C)C(=O)c2ccc(C)cc2)cc1 (stereo not drawn) | 32 | 25.4% (inactive)
Cc1ccc2nc(-c3ccc(S(=O)(=O)N4CCOCC4)cc3)cn2c1 | 14.7 | 6.1% (inactive)
CC(C)CN(C(=O)c1cccc(F)c1)c1c(N)n(CC(C)C)c(=O)[nH]c1=O | 32.3 | 18.5% (inactive)
CC(=O)c1cccc(OCc2cc(C(=O)N3CC4C[C@@H]5CC3C[C@H](C4)C5)no2)c1 | 37.1 | 27% (inactive)
Cn1cc(/C=C(\C(=O)O)C(C(=O)O)=C2CCCCC2)c2ccccc21 | 13.9 | 17.2% (inactive)
Cc1ccc(S(=O)(=O)N(C)c2ccc(C(=O)NCc3cccnc3)cc2)cc1 | -13.7 | -8.4% (inactive)
Cc1nc2sc(C(c3cccc(F)c3)N3CC(C)OC(C)C3)c(O)n2n1 (stereo not drawn) | 6.2 | 30%
